Data reported in publication PMC4588179, “Antifungal Activity of 14-Helical β-Peptides against Planktonic Cells and Biofilms of Candida Species” (Pharmaceuticals, 2015).
In brackets after ≈: the same amount, converted by molar mass.

Legend:
C. parapsilosis 5986 = experiment: Planktonic antifungal susceptibility (modified CLSI, XTT end point); type: cell-based, Candida parapsilosis; conditions: 10^3 cells/mL, RPMI, 35 °C, 48 h, XTT (A490), <10% metabolic activity, at least two independent days, three replicates each
Procedure: (§1) C. albicans strains SC5314 and ATCC 90028 were purchased from ATCC. C. albicans K1, C. glabrata 5376, C. parapsilosis 5986 and C. tropicalis 98-234 are clinical isolates from invasive candidiasis and were generously donated by the Andes group (University of Wisconsin-Madison). K1 is fluconazole resistant. All strains were stored as a 50% glycerol stock at −80 °C and grown in a liquid YPD media. For planktonic susceptibility testing, cells were grown on agar plates at 30 °C for 24 h and 2–3 colonies were used for the cell inoculum. For spheroplast formation and biofilm susceptibility testing assays, cells were grown overnight in YPD at 30 °C. RPMI (with L-glutamine and phenol red buffered with 3-(N-morpholino) propanesulfonic acid and adjusted to pH 7.0) was the media used for all susceptibility tests. XTT solution for assessing metabolic activity was prepared at 0.5 g/L in PBS with 3 μM menadione in acetone and pH adjusted to 7.4.
(§2) The antifungal activities of the β-peptides against C. albicans, C. glabrata, C. parapsilosis, C. tropicalis cells were assayed in accordance to the guidelines for planktonic susceptibility testing provided by the Clinical and Laboratory Standards Institute, but with a modification to include a quantitative XTT cell metabolic activity end-point. […] After 48 h, the MICs were recorded visually as the first well that […] and by using an XTT metabolic assay. […]

C. tropicalis 98-234 = experiment: as above; type: cell-based, Candida tropicalis; conditions: 10^3 cells/mL, RPMI, 35 °C, 48 h, XTT (A490), <10% metabolic activity, at least two independent days, three replicates each
Procedure: as §1, §2

[1] = RP-HPLC retention time as measure of β-peptide hydrophobicity; type: physicochemical; conditions: chromatographic, analytical RP-HPLC, C18 (Waters X-bridge, 4.6 mm × 250 mm), gradient 20%–80% CH3CN in water with 0.1% TFA over 5–35 min, 1 mL/minute, 0.5 to 1 mg/mL, 50 µL injected; mean ± standard deviation of triplicate measurements
Description: β-peptides were produced by microwave-assisted Fmoc synthesis at 20−40 μmol scales and purified by RP-HPLC using a C18 column. MALDI mass spectrometry was used to validate the mass of each peptide as described previously. Retention times determined by C18 RP-HPLC were used as a measure of the relative hydrophobicity of the β-peptides (Table 1). This approach has been used previously by our group and others to assess the relative hydrophobicity of different peptide structures. Preliminary antifungal activity and mammalian toxicity evaluation were reported previously for β-peptides 1–16 as planktonic MIC against C. albicans and percent hemolysis at the MIC, respectively.
Hydrophobicity of 14-helical β-peptides was characterized by measuring retention times with an analytical RP-HPLC using a C18 column (Waters, X-bridge, column dimensions 4.6 mm × 250 mm, Milford, MA, USA). The β-peptide solutions (0.5 to 1 mg/mL, 50 µL) were injected into the HPLC at a flow rate of 1 mL/minute. Retention time was characterized in triplicate with a gradient of 20%–80% CH3CN in water containing 0.1% TFA over 5–35 min.

[2] = tested on: human red blood cells (hRBCs); experiment: Hemolysis of human red blood cells; type: cell-based; conditions: hRBCs, 2-fold dilutions in tris-buffered saline, an hour at 37 °C, absorbance 405 nm, relative to positive lysis control; average ± standard deviation of three independent experiments of duplicates each
Procedure: Table S1. Hemolysis of β-peptide 1-16, concentration of β-peptid e needed for 50% lysis of human red blood cells (hRBCs)
Peptide # Peptide Concentration at 50% Hemolysis a (HC50, µg/mL) […]
a Hemolysis assays were perfor med as previously indicated in Lee, M.R. et al., ACS Chem. Biol. (2014). Briefly, equal volumes of 2-fold dilutions of β-peptides in tris-buffered saline (TBS) were incubated with hRBCs for an hour at 37 °C. Supernatants were transferred to a new plate and absorbance was measured at 405 nm.
% hemolysis was calculated relative to positive lysis control and the concentration of peptide needed for 50% hemolysis was recorded as HC50 for that peptide. Values reported are average measurements from three independent experiments of duplicates each and the error denoted is the standard deviation. Concentration dependent hemolysis graphs can be found in Lee, M.R. et al., ACS Chem. Biol. (2014).

C. glabrata 5376 = experiment: Planktonic antifungal susceptibility (modified CLSI, XTT end point); type: cell-based, Candida glabrata; conditions: 10^3 cells/mL, RPMI, 35 °C, 48 h, XTT (A490), <10% metabolic activity, at least two independent days, three replicates each
Procedure: as §1, §2

CC(C)[C@@H](CC(=O)N[C@@H](CCCCN)CC(N)=O)NC(=O)[C@H]1CCCC[C@@H]1NC(=O)C[C@H](CCCCN)NC(=O)C[C@@H](NC(=O)[C@H]1CCCC[C@@H]1NC(=O)C[C@H](CCCCN)NC(=O)C[C@@H](NC(=O)[C@H]1CCCC[C@@H]1N)C(C)C)C(C)C [Peptide 4]
MIC, C. parapsilosis (C. parapsilosis 5986): 16 µg/mL (≈ 13.8 µM)
MIC, C. tropicalis (C. tropicalis 98-234): 4 µg/mL (≈ 3.45 µM)
Hydrophobicity (HPLC Retention Time, min) [1]: 24.5 ± 0.2 min
Peptide Concentration at 50% Hemolysis (HC50) [2]: 161 ± 40 µg/mL
MIC, C. glabrata (C. glabrata 5376): 32 µg/mL (≈ 27.6 µM)
